According to patent US10550114B2, “Kinase inhibitors and their use in cancer therapy” (TECHNISCHE UNIVERSITÄT DORTMUND, priority 2015, dated 2020):
Like-named read-outs stand apart in the source and are kept apart here. Values belong to the compound of their own block, whether it stands above or below them.

Experiments:
[1] = biological target: fluorescently labeled full-length Akt1 (Homo sapiens (Human), UniProt P31749, C296S/C310S/C344S/E49C); assay: iFLiK binding analysis; details: fluorophore-labeled Akt1 200 nM; n.r. = no response up to 100 μM
Chain of fluorescently labeled full-length Akt1 (P31749 whole entry E49C/C296S/C310S/C344S): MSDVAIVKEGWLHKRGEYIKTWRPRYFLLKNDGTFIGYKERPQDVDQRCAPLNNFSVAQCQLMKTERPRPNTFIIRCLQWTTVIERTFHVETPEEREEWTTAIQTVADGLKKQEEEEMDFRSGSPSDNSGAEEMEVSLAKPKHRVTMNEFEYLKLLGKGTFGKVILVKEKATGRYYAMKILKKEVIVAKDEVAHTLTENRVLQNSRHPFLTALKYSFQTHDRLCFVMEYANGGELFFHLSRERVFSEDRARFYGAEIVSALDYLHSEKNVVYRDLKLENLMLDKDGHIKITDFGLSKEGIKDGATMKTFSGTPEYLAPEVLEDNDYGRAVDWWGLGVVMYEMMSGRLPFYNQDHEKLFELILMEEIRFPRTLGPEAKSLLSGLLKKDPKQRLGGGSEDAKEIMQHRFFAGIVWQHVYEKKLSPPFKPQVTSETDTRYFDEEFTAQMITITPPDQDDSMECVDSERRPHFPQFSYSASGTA
Protocol: Afterwards they were cloned into pREN4427-HIS-DEST vector and introduced into a baculovirus using the BacMagic Kit (Calbiochem) in Sf9 cells (Invitrogen). Protein expression, purification and labeling was performed according to standard protocols.
The final concentration of fluorophore-labeled recombinant Akt1 was 200 nM.

[2] = biological target: T1, activated full-length wtAkt1 (Homo sapiens (Human), UniProt P31749); assay: Activity-based (HTRF) assay, manual dilution series; details: for higher concentration required for half-maximum inhibition of Akt1 versus alkenyl counterpart: 1b vs 1a, 2b vs 2a
T1 sequence (P31749 whole entry): as the sequence (P31749 whole entry E49C/C296S/C310S/C344S) above, with C49E, S296C, S310C, S344C counted along it
Excerpt: OriginPro 9.1G software (OriginLab Corporation, Northhampton, Mass.) was used for data analysis and data was fit to a sigmoidal dose-response model using the following four-parameter logistic equation:
(§5) The potential influence of the reactive alkenyl group functioning as a Michael acceptor was further evaluated and the inhibitory potencies further assessed in activity-based studies utilizing activated full-length wtAkt1 (Millipore).

[3] = biological target: activated full-length Akt1 (Homo sapiens (Human), UniProt P31749); assay: Kinetic parameters (Ki, kinact), ECHO520 dilution series; assay type: biochemical; details: for kinact/KI: ECHO520
Chain of activated full-length Akt1 (P31749 whole entry): as the sequence (P31749 whole entry E49C/C296S/C310S/C344S) above, with C49E, S296C, S310C, S344C counted along it
Protocol: (§1) Time-dependent IC50 measurements were performed with activated full-length Akt1 as described under “Biochemical assays”. Briefly, IC50 values were determined for twelve different incubation times and afterwards plotted versus accordingly. Data was analyzed according to literature procedure as described in B. F. Krippendorff, R. Neuhaus, P. Lienau, A. Reichel, W. Huisinga, J. Biomol. Screen.
(§2) Calculated IC50 values were plotted versus the incubation time and data was fit as described in the literature to determine kinact and Ki as described above.

wild-type Akt1 [4] = biological target: T2, wild-type Akt1 (Homo sapiens (Human), UniProt P31749); assay: Activity-based assay, ECHO520 dilution series; assay type: biochemical
T2 sequence (P31749 whole entry): as the sequence (P31749 whole entry E49C/C296S/C310S/C344S) above, with C49E, S296C, S310C, S344C counted along it
Excerpt: as §5

Akt1_E17K = Akt1_E17K (Homo sapiens (Human), UniProt P31749, E17K); assay: Activity-based assay, ECHO520 dilution series; assay type: biochemical; details: mutant Akt1_E17K
Chain of Akt1_E17K (P31749 whole entry E17K): as the sequence (P31749 whole entry E49C/C296S/C310S/C344S) above, with E17K, C49E, S296C, S310C, S344C counted along it
Excerpt: as §5

Full-length wtAkt1 = Full-length wtAkt1 (Homo sapiens (Human), UniProt P31749); assay: ESI-MS/MS analysis after tryptic digest; assay type: binding; details: 2-fold molar excess
Chain of Full-length wtAkt1 (P31749 whole entry): as the sequence (P31749 whole entry E49C/C296S/C310S/C344S) above, with C49E, S296C, S310C, S344C counted along it
Protocol: Protoc. […] 3 μL of sample were loaded onto a pre-column cartridge and desalted for 5 min using 0.1% TFA in water as eluent at a flow rate of 30 μL/min. The samples were back-flushed from the pre-column to the nano-HPLC column during the whole analysis. […] During the complete gradient cycle, a typical TOP10 shot-gun proteomics method for the MS and MS/MS analysis was used. […] Biotechnol.

[5] = biological target: T1, activated full-length wtAkt1; assay: Kinetic characterization by determination of kinact/Ki (time-dependent IC50); assay type: biochemical; details: incubation 1 to 120 minutes; manual dilution series
Protocol: as §1, §2

wild-type Akt1 [6] = biological target: T2, wild-type Akt1; assay: ESI-MS of compound-treated Akt1; assay type: binding; details: 2 molar equivalents, thirty minutes on ice, vs DMSO control
Protocol: Purified full-length wtAkt1 was thawed under cold water and diluted to a final concentration of 1 mg/mL in storage buffer (50 mM HEPES, 200 mM NaCl, 10% Glycerol, pH 7.4). […] Following incubation for thirty minutes on ice, the samples were analyzed by ESI-MS using an Agilent 1100 Series HPLC System connected to a ThermoFinnigan LTQ Linear Ion Trap mass spectrometer. […] During the complete experiment, a mass range of 700 to 2000 m/z was scanned and raw data was deconvoluted and analyzed with MagTran and mMass (Version 5.5.0) software.

PC3 cells = assay: Western blot in prostate cancer cells; assay type: cell-based, human; details: PC3, 24 hours
Protocol: (§3) Human ductal breast carcinoma cells (BT474) and human prostate adenocarcinoma cells (PC-3) were purchased from the ATCC (Bethesda, Md., USA) and were cultured in RPMI 1640 medium (Life Technologies, Germany) supplemented with 10% (v/v) fetal calf serum (FCS; Biochrom, Berlin, Germany) and maintained in a humidified incubator at 37° C. and 5% CO2 (C200, Labotect Incubator, Göttingen, Germany).
(§4) BT474 and PC-3 cells were lysed for 10 min at 95° C. in 62.5 mM Tris-HCl (pH 6.8), 2% (w/v) SDS, 10% (v/v) glycerol, 80 mM DTT, and 0.01% (w/v) bromophenol blue (350.000 cells per 100 μL lysis buffer). Proteins were separated by SDS-PAGE and blotted onto PVDF-membranes (Roth, Karlsruhe, Germany) using Fastblot according to manufacturer's manual (B44, Biometra, Goettingen, Germany). After blocking with 5% (w/v) nonfat dry milk membranes were incubated at 4° C. over night with the respective primary antibody (1:20.000 for β-actin, 1:1000 for all other antibodies). After washing, the membranes were incubated for 1 h at room temperature with the secondary antibody (anti-IgG-HRP 1:2000, CST, Frankfurt, Germany) washed again and monitored by chemiluminescence imaging using FUSION Solo (peqlab, Erlangen, Germany) and appropriate ECL Prime Western blotting detection reagent according to the manufacturer's protocol (GE Healthcare/Amersham-Biosciences, Freiburg, Germany). […]

[7] = Maximum tolerated dose in mice; details: RjOrl:SWISS, mouse, in vivo, ip, PBS/PEG200 (60:40)
GIST-T1 cells = assay: Western blot in gastrointestinal stromal tumor cells; assay type: cell-based, human; details: GIST-T1, 24 hours
Protocol: For GIST-T1 cells protein lysates were prepared from cell line monolayers according to standard protocols as described in A. Duensing, F. Medeiros, B. McConarty, N. E. Joseph, D. Panigrahy, S. Singer, C. […] Protein concentrations were determined with the Bio-Rad Protein Assay (Bio-Rad Laboratories, Hercules, Calif.). Electrophoresis and immunoblotting were carried out as described in B. P. Rubin, S. Singer, C. Tsao, A. Duensing, M. L. Lux, R. Ruiz, M. K. Hibbard, C. J. Chen, S. Xiao, D. A. Tuveson, G. D. Demetri, C.
Controls were treated with dimethyl sulfoxide (DMSO).

BT474 cells = assay: Western blot in breast cancer cells; assay type: cell-based, human; details: BT474, 24 hours
Protocol: as §3, §4

[8] = Pharmacokinetic profiling in mice (plasma, LC-MS/MS); details: for bioavailability: CD1, mouse, in vivo
Protocol: EDTA was added to plasma in order to prevent blood from coagulation. The compound concentrations in the particular plasma samples were determined by LC-MS/MS, as follows:
Samples and blanks were prepared by adding 2.5 μL blank DMSO and 80 μL of ice-cold acetonitrile containing the internal standard (Griseofulvin, 1 μM) to 20 μl plasma followed by centrifugation at 13000 rpm (4° C.) for 10 min. 65 μL of the supernatant were diluted with 65 μL of LC-MS grade water. Samples were filtered (Millipore MSRLN0450 hydrophil) and subjected to LC-MS measurement. […] 2.5 μL of the corresponding DMSO stock solution were added to 20 μL of blank plasma followed by the addition of 80 μL of ice-cold acetonitrile containing the internal-standard. The samples were centrifuged for 10 min and 4° C. at 13000 rpm. 65 μL of the supernatant were diluted with 65 μL of LC-MS grade water and subjected to LC-MS analysis. A set of 3 different QCs (n=3) was prepared by adding of 2.5 μL DMSO stock solution (5, 0.5 and 0.05 μM) to 20 μL of plasma. Samples were subsequently handled as described above. All samples were analyzed using a Shimadzu LC20ADXR Solvent Delivery Unit, a Shimadzu SIL30ACMP autosampler and a ABSciex Qtrap5500 LC-MS/MS system. Therefore, 2 μL of sample were injected and separated using an Agilent Poroshell C18, 2.7 μm column (2.1 mm×50 mm) at 60° C. starting at 5% of solvent B for 0.3 min followed by a gradient up to 100% of solvent B over 0.6 min (flow rate 1 mL/min) with 0.1% formic acid in water as solvent A and 0.1% formic acid in acetonitrile as solvent B. Data evaluation was performed using Analyst 1.6.2 Software (Sciex).

MAP4K5 = MAP4K5 (Homo sapiens (Human), UniProt Q9Y4K4); assay: Z'LYTE kinase assay, SelectScreen panel; assay type: biochemical; details: 1 μM compound, apparent ATP KM
Chain of MAP4K5 (Q9Y4K4 whole entry): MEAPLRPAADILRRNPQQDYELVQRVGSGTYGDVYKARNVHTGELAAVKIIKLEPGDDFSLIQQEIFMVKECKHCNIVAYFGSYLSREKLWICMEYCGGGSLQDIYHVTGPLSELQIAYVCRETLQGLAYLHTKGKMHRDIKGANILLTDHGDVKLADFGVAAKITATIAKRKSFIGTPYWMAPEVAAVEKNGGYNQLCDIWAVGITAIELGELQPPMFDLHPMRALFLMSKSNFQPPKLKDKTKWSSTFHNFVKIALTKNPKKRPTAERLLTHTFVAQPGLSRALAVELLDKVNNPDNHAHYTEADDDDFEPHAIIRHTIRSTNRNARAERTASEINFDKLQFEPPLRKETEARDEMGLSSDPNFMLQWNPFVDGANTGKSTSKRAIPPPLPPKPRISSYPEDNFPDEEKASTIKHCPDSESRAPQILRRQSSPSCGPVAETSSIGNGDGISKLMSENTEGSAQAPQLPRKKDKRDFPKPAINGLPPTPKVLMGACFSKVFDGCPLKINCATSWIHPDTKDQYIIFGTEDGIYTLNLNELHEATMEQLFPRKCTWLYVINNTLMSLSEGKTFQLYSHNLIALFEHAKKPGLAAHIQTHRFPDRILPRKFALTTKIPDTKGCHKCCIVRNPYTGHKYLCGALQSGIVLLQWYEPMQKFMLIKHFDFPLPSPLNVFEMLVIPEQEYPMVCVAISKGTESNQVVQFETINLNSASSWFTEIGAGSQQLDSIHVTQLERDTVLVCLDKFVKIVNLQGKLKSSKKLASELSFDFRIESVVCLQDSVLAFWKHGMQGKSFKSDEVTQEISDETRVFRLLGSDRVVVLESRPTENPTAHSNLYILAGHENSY

[9] = biological target: T1, activated full-length wtAkt1; assay: Time-dependent activity-based screening; assay type: biochemical; details: incubation 10, 30, 60 or 300 minutes
[10] = activated full-length wtAkt1, 120 pM, manual dilution series

SMILES: N#C/C(=C\C1CC1)C(=O)Nc1cccc(C(=O)NC2CCN(Cc3ccc(-c4nc5cc[nH]c(=O)c5cc4-c4ccccc4)cc3)CC2)c1 [Compound 45]
kinact [3]: 0.00182 s⁻¹
kinact/KI [3]: 41000 ± 9000 M⁻¹ s⁻¹

SMILES: C=CC(=O)Nc1ccc2[nH]c(=O)n(C3CCN(Cc4ccc(-c5nc6cc[nH]c(=O)c6cc5-c5ccccc5)cc4)CC3)c2c1 [Compound 1a, N-(2-oxo-3-(1-(4-(5-oxo-3-phenyl-5,6-dihydro-1,6-naphthyridin-2-yl)benzyl)piperidin-4-yl)-2,3-dihydro-1H-benzo[d]imidazol-5-yl) acrylamide]
phosphorylation of Akt1 substrate GSK3β (PC3 cells): decreased phosphorylation
pAkt1 (Thr308 and Ser473) level (PC3 cells; 0.01-10 μM): dose-dependent decreases of pAkt1
MTD [7]: 20 mg/kg
phosphorylation of downstream targets S6 and 4EBP1 (GIST-T1 cells): decreasing phosphorylation
cellular pAkt1 levels (GIST-T1 cells; 0.001-0.1 μM): reduces cellular pAkt1 levels at low nanomolar concentrations
phosphorylation of Akt1 substrate GSK3β (BT474 cells): decreased phosphorylation
pAkt1 (Thr308 and Ser473) level (BT474 cells; 0.01-10 μM): dose-dependent decreases of pAkt1
bioavailability ([8]; ip, 20 mg/kg): 47.7%
bioavailability ([8]; po, 20 mg/kg): 10.8%
maximum plasma concentration ([8]; i.p., 20 mg/kg): 1.15 µM
time of maximum plasma concentration ([8]; i.p., 20 mg/kg): 45 min
maximum plasma concentration ([8]; i.v., 2 mg/kg): 1.05 µM
time of maximum plasma concentration ([8]; i.v., 2 mg/kg): immediately after injection
maximum plasma concentration ([8]; p.o., 20 mg/kg): 0.62 µM
time of maximum plasma concentration ([8]; p.o., 20 mg/kg): 15 min
inhibition at 1 µM (MAP4K5): 37%

SMILES: CN(C)C/C=C/C(=O)Nc1ccc2[nH]c(=O)n(C3CCN(Cc4ccc(-c5nc6cc[nH]c(=O)c6cc5-c5ccccc5)cc4)CC3)c2c1 [Compound 36]
kinact [3]: 0.00102 s⁻¹
kinact/KI [3]: 51000 ± 10000 M⁻¹ s⁻¹

SMILES: C=CC(=O)Nc1ccc2c(c1)n(C1CCN(Cc3ccc(-c4nc5cc[nH]c(=O)c5cc4-c4ccccc4)cc3)CC1)c(=O)n2C [Compound 46]
Ki [3]: 1 to 18.9 nM
kinact [3]: 0.00202 s⁻¹
kinact/KI [3]: 190000 ± 25000 M⁻¹ s⁻¹

SMILES: CCC(=O)Nc1ccc2[nH]c(=O)n(C3CCN(Cc4ccc(-c5nc6cc[nH]c(=O)c6cc5-c5ccccc5)cc4)CC3)c2c1 [Compound 1b, N-(2-OXO-3-(1-(4-(5-OXO-3-PHENYL-5,6-DIHYDRO-1,6-NAPHTHYRIDIN-2-YL)BENZYL)PIPERIDIN-4-YL)-2,3-DIHYDRO-1H-BENZO[D]IMIDAZOL-5-YL) PROPIONAMIDE]
Kd [1]: 62 ± 12 nM
time dependence of dose-response curves [9]: No differences were observed
higher concentration required for half-maximum inhibition of Akt1 versus alkenyl counterpart [2]: 10 fold
IC50 [2, 10]: 7.5 ± 2 nM

Further lines, with some results ahead:

Kd [1]: 79 ± 21 nM
IC50 [2, 10]: 18.2 ± 13.3 nM
SMILES: CCC(=O)Nc1cccc(C(=O)NC2CCN(Cc3ccc(-c4nc5cc[nH]c(=O)c5cc4-c4ccccc4)cc3)CC2)c1 [Compound 27]

IC50 (wild-type Akt1 [4]): 21.3 ± 1.8 nM
IC50 (Akt1_E17K): 2900 ± 137 nM
SMILES: C=CC(=O)Nc1ccc(C(=O)NC2CCN(Cc3ccc(-c4nc5cc[nH]c(=O)c5cc4-c4ccccc4)cc3)CC2)c(F)c1 [Compound 47]

Kd [1]: 795 ± 176 nM
kinact/KI [5]: 2300 ± 300 M⁻¹ s⁻¹
IC50 [2]: 372 ± 48 nM
IC50 [2, 10]: 372 ± 48 nM
mass increase of Akt1 (single labeled) (wild-type Akt1 [6]): 572 Da
SMILES: C=CC(=O)Nc1cccc(-c2cn(C3CCN(Cc4ccc(-c5nc6ccccn6c5-c5ccccc5)cc4)CC3)nn2)c1 [Compound 2a, N-[3-(1-{1-[4-(3-Phenylimidazo[1,2-a]pyridin-2-yl)benzyl]piperidin-4-yl}-1H-1,2,3-triazol-4-yl)phenyl]acrylamide]
covalently modified residues (Full-length wtAkt1): covalently bind to Akt1 at Cys296 and Cys310

IC50 (wild-type Akt1 [4]): 8.1 ± 0.4 nM
IC50 (Akt1_E17K): 397 ± 172 nM
SMILES: C=CC(=O)Nc1ccc(C(=O)NC2CCN(Cc3ccc(-c4nc5cc[nH]c(=O)c5cc4-c4ccccc4)cc3)CC2)s1 [Compound 48]

Kd [1]: 797 ± 180 nM
IC50 [2]: 992 ± 328 nM
higher concentration required for half-maximum inhibition of Akt1 versus alkenyl counterpart [2]: 4 fold
SMILES: CCC(=O)Nc1cccc(-c2cn(C3CCN(Cc4ccc(-c5nc6ccccn6c5-c5ccccc5)cc4)CC3)nn2)c1 [Compound 2b, N-[3-(1-{1-[4-(3-Phenylimidazo[1,2-a]pyridin-2-yl)benzyl]piperidin-4-yl}-1H-1,2,3-triazol-4-yl)phenyl]propionamide]

time dependence of dose-response curves [9]: No differences were observed
SMILES: NC1(c2ccc(-c3nc4ccn5c(=O)[nH]nc5c4cc3-c3ccccc3)cc2)CCC1 [MK-2206, reference compound]
